Experimental data published in US6337316B1, “Pharmaceutical compositions thereof, and methods of using same” (Applied Research Systems ARS Holding N.V., priority 1997, dated 2002).
Where two headings read alike, the source gives them in different places. Bridge positions count the residues as written; N and C are the ends. Ends that are not written are not given here. iodoacetamide‑alkyl = not defined here

What was measured:
[1] = test system: lymphocyte proliferation in the human MLR; assay type: cell-based; conditions: for Human MLR (ability to inhibit lymphocyte proliferation, cpm): peptide 12.5 to 100 μM, assays of 1/24, 1/31, 3/6, 4/17, 5/2, one symbol per assay; for effect on the human MLR in combination with CTLA-4Ig: CTLA-4Ig spiked in at 0.5 μg/ml (FIG. 8); for effect on the MLR, retest: two MLRs, peptide by itself, concentrations up to 200 μM
Method: Whole blood from donors was obtained from Interstate Blood Bank, Memphis, Tenn. Blood specimens were handled in a biosafety level 2 containment facility as recommended for potentially infectious blood specimens in the CDC/NIH manual Biosafety in Microbiological and Biomedical Laboratories; 3rd edition, 1993, page 10. Peripheral blood mononuclear cells (PBMC) were separated from red blood cells and granulocytes by ficoll-hypaque purification. Whole peripheral blood was diluted 1:2 in PBS and 30 ml was overlayed onto 15 ml of ficoll-hypaque in 50 ml polypropylene tubes. The tubes were spun at 400×g for 30 min at 25° C. Following centrifugation, the interface between the upper plasma layer and the lower ficoll layer was collected, cells washed in RPMI-1640 2×, and viable counts determined using trypan blue. Cells to be used as responders in the assay were stored on ice until mitomycin C treatment of stimulator cells was completed.
PBMC, isolated as described above, to be used as stimulators in the assay were adjusted to 2-4×10^6 cells/ml in complete medium (RPMI 1640 containing 10% heat-inactivated human AB serum, 2 mM glutamine, 50 μM 2-mercaptoethanol and 100 U/ml penicillin-100 μg/ml streptomycin), and treated with mitomycin C (25 μg/ml) for 30 min in a 37° C. water bath. Following treatment, cells were washed with S volumes of complete medium 3×, and viable counts determine using trypan blue. To set up autologous stimulation controls some responder cells were also treated with mitomycin C as mentioned above.
Purified CTLA-4Ig fusion protein was produced, as described in Steurer et al. 1995, from a NS-1 cell line kindly donated by Dr. T. Strom (Beth Israel Hospital, Boston, Mass.) as a 1 mg/ml solution in sterile PBS. The protein was stored frozen at −80° C. Upon thawing, the aliquot was stored at 4° C. Purified peptides were lyophilized according to known procedures. Peptides were reconstituted in sterile PBS, pH 7.4 at 2 mM concentration, aliquoted in microfuge cubes and stored frozen at −20° C. For the assay, an aliquot of the peptide was thawed and diluted to 200 μM in complete medium.
For the one-way allogeneic mixed lymphocyte response (MLR) assay, responder cells were plated at 10^6 cells/well, and stimulator cells at 5×10^4 cells/well in 96-well round bottom plates. Cells were incubated with serial dilutions of the anti-CD4 Ab Leu 3A (1 μg/ml-0.06 μg/ml) in triplicate, or an isotype-matched control Ab. Cyclosporin A at 1 μg/ml was used as an additional control.
CTLA-4 Ig was serially diluted an.4 tested from 10 μg/ml to 0.15 μg/ml. Peptides were tested either directly or in the presence of a constant spiked-in dose of CTLA-4 Ig at 0.5 μg/ml. The plates were incubated at 37° C. in a humidified 5% CO2 atmosphere for 7 days.
Proliferation of the cells was determined by pulsing the wells with ^3H-Tdr (1 μCi/well) for the last 18 h of the assay. Plates were harvested using a Tomtec -late harvester and the counts incorporated determined using a Wallac microbetaplate plus reader.
A total of 34 peptides were tested for inhibition of lymphocyte proliferation in the human MLR. Each peptide was tested in a MLR at doses ranging from 12.5 to 100 μM. The activity of each peptide was identified by assigning a + and − tone peptide depending on its ability to inhibit lymphocyte proliferation in the MLR (cpms).

[2] = test system: binding of CTLA-4Ig to B7 on Cess B cells; assay: CTLA-4Ig/B7 binding assay on Cess B cells by FACS; parameters: key to Binding Assay (effect on CTLA-4Ig binding to Cess B cells): −: no change in binding; +: a minor change of <10% in binding; ++: a change of >20% in binding; conditions: for Binding Assay (effect on CTLA-4Ig binding to Cess B cells): FACS, assays of 3/24, 3/25, 4/5, 4/25, one symbol per assay; for effect on CTLA-4Ig binding, retest in the Cess B binding assay: retest of positives from primary screening
Method: +++ was assigned if the peptide tested gave >50% change in cpm in a dose dependent fashion. In addition to the MLR, these 34 peptides were also evaluated in a CTLA-4Ig/B7 binding assay in which the ability of these peptides to affect the binding of CTLA-4Ig to B7 on Cess B cells was examined by FACS analysis.
As with the MLR, a + or − was assigned to each peptide depending on its ability to effect CTLA-4Ig binding to Cess B cells; where − represents no change in binding, + represents a minor change of <10% in binding, and a ++ represents a change of >20% in binding.

Row | Substance | Human MLR (ability to inhibit lymphocyte proliferation, cpm) [1] | Binding Assay (effect on CTLA-4Ig binding to Cess B cells) [2] | other results
1 | ADSQVTEV [AT 127.1] | −, − | +/−, +/− | 
2 | ADSQVTEV-OH [AT 124.1] | −, − | +, − | 
3 | AT 199.2A: resynthesis of AT 199.1, refolding prolonged to 5 days at pH 10.0; fully cyclized version (RKCLMYPPPYYCHH; disulfide 3-12 (inferred); not fully specified (C-terminus)) |  |  | inhibition of the human MLR ([1]; 100 μM, another MLR): 25%; inhibition of the human MLR ([1]; 100 μM, one MLR): 50%; effect on the human MLR in combination with CTLA-4Ig [1]: additive
4 | AT 199.2B: AT 199 treated with iodoacetamide, purely linear analog with alkylated cysteines (RKC(iodoacetamide‑alkyl)LMYPPPYYC(iodoacetamide‑alkyl)HH; not fully specified (C-terminus); reading uncertain) |  |  | effect on the human MLR in combination with CTLA-4Ig [1]: no effect; inhibition of the MLR, in words ([1]; control and linear peptides compared with AT 199): no effect; inhibition of the human MLR ([1]; the MLR's, highest concentration (100 μM) tested): < 10%
5 | CDDSIC (disulfide 1-6 (inferred)) [AT 131.1] | +, −, − |  | 
6 | CEYASPGKATEVC (disulfide 1-13 (inferred)) [AT 123.1] | −, − | +/−, − | 
7 | CKGLDSAVEC (disulfide 1-10 (inferred)) [AT 108.1] | −, −, − | − | 
8 | CKIEVMYPPPYC (disulfide 1-12 (inferred)) [AT 113.1] | − (all concentrations of peptide tested gave <15% change in cpm) | −, − | 
9 | CKIEVMYPPPYLC (disulfide 1-13 (inferred)) [AT 114.1] | Toxic | Toxic | 
10 | CKYSYNLFSREFC (disulfide 1-13 (inferred)) [AT 107.1] | −, +, +, − |  | 
11 | CMYPPPYGKC (disulfide 1-10 (inferred)) [AT 110.1] | − (all concentrations of peptide tested gave <15% change in cpm) | −, − | 
12 | CMYPPPYKAKC (disulfide 1-11 (inferred)) [AT 112.1] | − (all concentrations of peptide tested gave <15% change in cpm) | −, − | 
13 | CMYPPPYYKAKC (disulfide 1-12 (inferred)) [AT 130.1] | −, − | −, − | 
14 | CMYPPPYYRGGKC (disulfide 1-13 (inferred)) [AT 129.1] | −, − | ++ (a change of >20% in binding) | 
15 | CMYPPQYGKC (disulfide 1-10 (inferred)) [AT 111.1] | −, +/− | − | 
16 | CMYPPYLRGGKC (disulfide 1-12 (inferred)) [AT 109.1] |  | −, + | 
17 | CRQADSQVTEC (disulfide 1-11 (inferred)) [AT 128.1] | ++, − | + (a minor change of <10% in binding) | effect on the MLR, retest [1]: none of these peptide by themselves had any consistent effect; effect on CTLA-4Ig binding, retest in the Cess B binding assay [2]: no effect
18 | CSKTGFNC (disulfide 1-8 (inferred)) [AT 115.1] | − (all concentrations of peptide tested gave <15% change in cpm) | − | 
19 | CSPNQC (disulfide 1-6 (inferred)) [AT 135.1] | +/−, − | ++ (a change of >20% in binding) | effect on the MLR, retest [1]: none of these peptide by themselves had any consistent effect; effect on CTLA-4Ig binding, retest in the Cess B binding assay [2]: no effect
20 | CSSGNQVC (disulfide 1-8 (inferred)) [AT 132.1] | +, −, − | +, − | 
21 | CSSPNQVC (disulfide 1-8 (inferred)) [AT 133.1] | ++, + | ++, − | effect on the MLR, retest [1]: none of these peptide by themselves had any consistent effect; effect on CTLA-4Ig binding, retest in the Cess B binding assay [2]: no effect
22 | ECASPGKATEVC (not fully specified (bridges); cysteine pairing not given here) [AT 118.1] | − (all concentrations of peptide tested gave <15% change in cpm) |  | 
23 | HVAQPA [AT 136.1] | ++, +, − | +++, + | effect on the MLR, retest [1]: none of these peptide by themselves had any consistent effect; effect on CTLA-4Ig binding, retest in the Cess B binding assay [2]: no effect
24 | HVEQPA [AT 137.1] | −, + | +/−, − | 
25 | HVEQPA-OH [AT 125.1] | −, − | −, + | 
26 | KCSYNLFSREFC (not fully specified (bridges); cysteine pairing not given here) [AT 106.1] | ++, +, +, +/− | ++, ++ | effect on the MLR, retest [1]: none of these peptide by themselves had any consistent effect; effect on CTLA-4Ig binding, retest in the Cess B binding assay [2]: no effect
27 | KILVKQS [AT 119.1] | −, +/− | − | 
28 | KILVKQS-OH [AT 121.1] | +/−, − |  | 
29 | KYLVKQS [AT 120.1] | −, +/− | − | 
